Each block holds one molecule with its values, some of them ahead of it. The source made the active and inactive calls.
Tests used:
[1] = target: Mitochondrial peptide methionine sulfoxide reductase (Bos taurus, UniProt P54149); format: functional;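 also: absorbance read-out, biochemical high-throughput dose-response screen for MsrA inhibitors, confirmatory; recombinant bovine MsrA coupled to E. coli TrxB with NADPH and selenocystamine; potency is for inhibitors of MsrA activity on DMSO substrate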
[2] = target: Platelet-activating factor acetylhydrolase (Mus musculus, UniProt Q60963); test: Late stage assay provider results from the probe development effort to identify inhibitors of pPAFAH: fluorescence-based dose-response biochemical gel-based competitive Activity-Based Protein Profiling (ABPP) assay for SAR compounds.; format: functional
[3] = target: T1, Melanin-concentrating hormone receptor 1 (Homo sapiens, UniProt Q99705); test: Late-stage fluorescence-based counterscreen for antagonists of the G-protein coupled receptor 7 (GPR7): cell-based dose response assay to identify antagonists of the melanin-concentrating hormone receptor 1 (MCHR1) Set 6.; format: functional
[4] = target: T2, Neuropeptides B/W receptor type 1 (Homo sapiens, UniProt P48145); test: human NPBW1 receptor blockade, IC50 – cell-based, fluorescence, dose response, set 6, late-stage follow-up (AID 588583); format: functional
T2 sequence (P48145 whole entry): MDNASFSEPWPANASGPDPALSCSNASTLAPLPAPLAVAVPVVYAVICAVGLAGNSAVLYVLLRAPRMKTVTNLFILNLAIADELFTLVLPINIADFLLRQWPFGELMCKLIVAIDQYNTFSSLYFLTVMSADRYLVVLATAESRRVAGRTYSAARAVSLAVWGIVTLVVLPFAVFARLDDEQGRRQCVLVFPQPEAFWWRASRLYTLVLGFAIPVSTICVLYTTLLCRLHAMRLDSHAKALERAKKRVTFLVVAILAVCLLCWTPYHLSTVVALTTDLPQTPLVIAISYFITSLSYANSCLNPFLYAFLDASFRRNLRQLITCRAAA

[5] = target: T2, Neuropeptides B/W receptor type 1; test: human NPBW1 receptor blockade, IC50 – cell-based, fluorescence, dose response, set 5, late-stage follow-up (AID 588566); format: functional
[6] = target: T1, Melanin-concentrating hormone receptor 1; test: Late-stage fluorescence-based counterscreen for antagonists of the G-protein coupled receptor 7 (GPR7): cell-based dose response assay to identify antagonists of the melanin-concentrating hormone receptor 1 (MCHR1) Set 5.; format: functional
[7] = target: T3, Polyadenylate-binding protein 1 (Homo sapiens, UniProt P11940); test: MLLE binding blockers, Cy5 peptide tracer – biochemical, fluorescence polarization, Cy5-PAM2 peptide, secondary, miRNA deadenylation inhibitor project, dose response (AID 602260); format: functional; conditions: read-out: IC50_Mean
[8] = target: DNA (cytosine-5)-methyltransferase 1 (Homo sapiens, UniProt P26358); test: inhibition of DNA methylation by DNMT1 – biochemical, fluorescent molecular beacon, confirmation (AID 602386); format: functional
[9] = target: T3, Polyadenylate-binding protein 1; test: MLLE domain peptide-binding blockers, IC50 – biochemical, fluorescence polarization, FITC-PAM2 peptide, dose response (AID 602259); format: functional; conditions: read-out: IC50_Mean
[10] = target: SWI/SNF-related matrix-associated actin-dependent regulator of chromatin subfamily A member 2 (Homo sapiens, UniProt P51531); test: Luminescence-based cell-based high throughput dose response assay to identify activators of the function of SWI/SNF related, matrix associated, actin dependent regulator of chromatin, subfamily a, member 2 (SMARCA2, BRM).; format: functional
[11] = Counterscreen for activators of the function of SWI/SNF related, matrix associated, actin dependent regulator of chromatin, subfamily a, member 2 (SMARCA2, BRM): Luminescence-based cell-based high throughput dose response assay to identify non-selective compounds using the VP16 reporter assay.; format: functional
[12] = target: Cytochrome P450 3A4 (Homo sapiens, UniProt P08684); conditions: Potency;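 also: confirmatory qHTS run detecting inhibitors and substrates of CYP3A4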
Sequence of Cytochrome P450 3A4 (P08684 whole entry): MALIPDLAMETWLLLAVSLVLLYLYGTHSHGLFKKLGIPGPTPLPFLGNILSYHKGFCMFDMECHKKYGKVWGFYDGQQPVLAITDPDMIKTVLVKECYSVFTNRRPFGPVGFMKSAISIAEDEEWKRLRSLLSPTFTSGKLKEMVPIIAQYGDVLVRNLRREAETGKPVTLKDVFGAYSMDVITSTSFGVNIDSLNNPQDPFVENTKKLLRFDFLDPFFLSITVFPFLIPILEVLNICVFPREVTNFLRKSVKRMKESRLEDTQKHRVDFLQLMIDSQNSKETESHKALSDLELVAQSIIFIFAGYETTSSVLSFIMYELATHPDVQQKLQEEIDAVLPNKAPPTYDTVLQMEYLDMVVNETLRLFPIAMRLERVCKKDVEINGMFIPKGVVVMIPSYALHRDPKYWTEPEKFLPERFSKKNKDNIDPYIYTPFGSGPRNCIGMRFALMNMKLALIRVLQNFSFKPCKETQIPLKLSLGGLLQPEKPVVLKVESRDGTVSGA

T1 sequence (Q99705 whole entry): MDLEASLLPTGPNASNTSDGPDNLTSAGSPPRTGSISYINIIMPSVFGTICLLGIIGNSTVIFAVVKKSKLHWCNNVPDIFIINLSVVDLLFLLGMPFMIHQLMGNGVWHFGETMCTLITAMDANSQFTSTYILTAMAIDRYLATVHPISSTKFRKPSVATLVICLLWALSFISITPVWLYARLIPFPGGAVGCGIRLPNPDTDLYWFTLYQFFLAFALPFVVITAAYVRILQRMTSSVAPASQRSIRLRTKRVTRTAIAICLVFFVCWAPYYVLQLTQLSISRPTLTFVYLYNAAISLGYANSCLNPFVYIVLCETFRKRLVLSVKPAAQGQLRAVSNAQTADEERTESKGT
T3 sequence (P11940 whole entry): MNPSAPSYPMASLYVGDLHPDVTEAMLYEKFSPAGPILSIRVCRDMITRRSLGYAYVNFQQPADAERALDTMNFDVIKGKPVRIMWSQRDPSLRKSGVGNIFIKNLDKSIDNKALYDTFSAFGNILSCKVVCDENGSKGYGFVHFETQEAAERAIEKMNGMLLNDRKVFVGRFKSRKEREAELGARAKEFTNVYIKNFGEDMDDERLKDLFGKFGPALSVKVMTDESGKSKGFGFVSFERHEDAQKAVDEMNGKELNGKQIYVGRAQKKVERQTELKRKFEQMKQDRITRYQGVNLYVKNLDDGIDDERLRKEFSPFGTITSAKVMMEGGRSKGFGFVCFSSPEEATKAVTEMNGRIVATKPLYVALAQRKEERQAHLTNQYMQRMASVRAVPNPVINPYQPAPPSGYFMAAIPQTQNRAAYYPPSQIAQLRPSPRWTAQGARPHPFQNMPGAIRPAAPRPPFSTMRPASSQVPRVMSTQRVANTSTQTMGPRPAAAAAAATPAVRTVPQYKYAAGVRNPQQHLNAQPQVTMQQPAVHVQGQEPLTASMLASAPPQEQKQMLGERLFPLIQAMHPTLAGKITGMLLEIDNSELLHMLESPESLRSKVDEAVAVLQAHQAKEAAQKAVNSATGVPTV
Sequence of Platelet-activating factor acetylhydrolase (Q60963 whole entry): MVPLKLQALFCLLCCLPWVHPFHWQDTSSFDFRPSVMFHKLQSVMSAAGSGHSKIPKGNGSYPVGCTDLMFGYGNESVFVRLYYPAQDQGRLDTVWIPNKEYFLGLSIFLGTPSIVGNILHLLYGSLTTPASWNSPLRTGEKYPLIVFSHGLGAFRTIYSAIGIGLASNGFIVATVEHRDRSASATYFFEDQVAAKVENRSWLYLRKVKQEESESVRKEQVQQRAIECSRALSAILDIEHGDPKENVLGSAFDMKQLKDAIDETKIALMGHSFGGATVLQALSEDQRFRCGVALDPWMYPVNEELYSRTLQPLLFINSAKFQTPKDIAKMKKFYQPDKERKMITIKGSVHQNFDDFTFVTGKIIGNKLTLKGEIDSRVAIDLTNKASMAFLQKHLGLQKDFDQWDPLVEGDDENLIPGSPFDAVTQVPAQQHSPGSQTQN
Sequence of Mitochondrial peptide methionine sulfoxide reductase (P54149 whole entry): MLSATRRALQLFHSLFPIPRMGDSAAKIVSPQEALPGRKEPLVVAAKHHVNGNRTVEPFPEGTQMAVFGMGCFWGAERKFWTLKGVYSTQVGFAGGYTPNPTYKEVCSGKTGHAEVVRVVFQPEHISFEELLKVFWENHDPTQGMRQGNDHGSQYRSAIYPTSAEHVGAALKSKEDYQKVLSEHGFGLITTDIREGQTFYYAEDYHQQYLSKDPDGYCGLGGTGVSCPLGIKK
Sequence of DNA (cytosine-5)-methyltransferase 1 (P26358 whole entry, the tested form may be a part): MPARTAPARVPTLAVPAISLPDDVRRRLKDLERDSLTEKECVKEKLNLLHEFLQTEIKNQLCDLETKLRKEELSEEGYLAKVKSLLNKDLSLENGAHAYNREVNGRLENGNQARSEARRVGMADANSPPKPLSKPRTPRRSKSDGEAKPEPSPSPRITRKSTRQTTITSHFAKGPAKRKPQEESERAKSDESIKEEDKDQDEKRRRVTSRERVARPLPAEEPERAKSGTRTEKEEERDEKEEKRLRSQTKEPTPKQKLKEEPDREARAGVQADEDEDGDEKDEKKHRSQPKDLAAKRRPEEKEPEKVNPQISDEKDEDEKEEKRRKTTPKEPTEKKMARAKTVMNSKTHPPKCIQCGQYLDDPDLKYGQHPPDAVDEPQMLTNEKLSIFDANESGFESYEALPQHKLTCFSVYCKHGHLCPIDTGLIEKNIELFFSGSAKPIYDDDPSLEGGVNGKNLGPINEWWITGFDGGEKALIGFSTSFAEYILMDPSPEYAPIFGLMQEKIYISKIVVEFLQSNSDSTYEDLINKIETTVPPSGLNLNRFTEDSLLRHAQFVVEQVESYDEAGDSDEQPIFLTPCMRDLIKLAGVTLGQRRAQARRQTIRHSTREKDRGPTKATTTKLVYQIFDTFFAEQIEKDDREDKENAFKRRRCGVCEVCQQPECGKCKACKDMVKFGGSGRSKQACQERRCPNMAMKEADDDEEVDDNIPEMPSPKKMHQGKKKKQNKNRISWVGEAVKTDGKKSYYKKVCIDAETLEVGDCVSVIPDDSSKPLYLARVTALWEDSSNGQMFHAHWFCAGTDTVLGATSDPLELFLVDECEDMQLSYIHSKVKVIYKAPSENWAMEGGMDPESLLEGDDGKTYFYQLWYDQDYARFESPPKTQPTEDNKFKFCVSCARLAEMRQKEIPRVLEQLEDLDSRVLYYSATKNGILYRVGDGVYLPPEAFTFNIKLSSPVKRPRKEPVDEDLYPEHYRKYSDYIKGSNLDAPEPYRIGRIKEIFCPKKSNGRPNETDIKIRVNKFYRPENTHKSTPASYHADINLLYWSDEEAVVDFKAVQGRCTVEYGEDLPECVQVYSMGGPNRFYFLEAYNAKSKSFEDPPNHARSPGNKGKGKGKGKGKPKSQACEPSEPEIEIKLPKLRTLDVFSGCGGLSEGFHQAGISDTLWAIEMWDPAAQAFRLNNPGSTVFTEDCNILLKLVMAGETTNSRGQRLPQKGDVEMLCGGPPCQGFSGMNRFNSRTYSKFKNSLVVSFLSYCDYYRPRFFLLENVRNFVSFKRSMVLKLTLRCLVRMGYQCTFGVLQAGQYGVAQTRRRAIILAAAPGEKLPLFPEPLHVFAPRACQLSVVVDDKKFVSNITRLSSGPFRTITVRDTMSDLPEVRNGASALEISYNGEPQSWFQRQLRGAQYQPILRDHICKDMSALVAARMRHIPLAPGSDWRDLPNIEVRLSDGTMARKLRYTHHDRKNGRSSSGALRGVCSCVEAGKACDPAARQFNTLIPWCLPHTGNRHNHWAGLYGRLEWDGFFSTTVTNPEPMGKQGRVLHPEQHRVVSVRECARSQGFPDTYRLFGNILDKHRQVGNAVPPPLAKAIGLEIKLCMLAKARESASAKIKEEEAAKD

SMILES: C/C(=N\Nc1ccc(S(N)(=O)=O)cc1[N+](=O)[O-])c1cccnc1
IC50 [1]: 155 µM (inactive)

SMILES: Cc1cc(N2CCN(C(=O)Oc3ccc(-n4cccc4)cc3)CC2)c2ccccc2n1
IC50 [2]: 0.057 µM (active)

SMILES: CCOC(=O)C(C#N)c1ccnn(Cc2cccc3ccccc23)c1=O (centres undefined)
IC50 [5]: 1.74 µM (active)
IC50 [6]: 15 µM (inactive)

SMILES: O=C1c2ccccc2-c2cccc3cccc1c23 [BENZANTHRONE]
IC50 [7]: > 66 µM (inactive)
IC50 [8]: 41 µM (active)
IC50 [9]: 34 µM (inactive)
EC50 [10]: > 91.2 µM (inactive)
EC50 [11]: > 91.2 µM (inactive)
AC50 [12]: 39.8 µM (inconclusive)

More lines, now with the values ahead:

IC50 [3]: 0.564 µM (active)
IC50 [4]: 0.564 µM (active)
SMILES: N#CC(c1ccccn1)c1c(Cl)cnn(Cc2cccc3ccccc23)c1=O (centres undefined)

IC50 [5]: 0.325 µM (active)
IC50 [6]: 0.794 µM (active)
SMILES: N#CC(c1ccsc1)c1c(Cl)cnn(Cc2cccc3ccccc23)c1=O (centres undefined)

— ChEMBL document CHEMBL1201862, “PubChem BioAssay data set” (2004)
